Test [1] concerns the target T1, 5α-reductase (Homo sapiens, UniProt P31213).
T1 construct: particulate fraction from homogenates of hyperplastic human prostates as the enzyme source; from tissue; host or cells: hyperplastic human prostate, particulate fraction (140,000 x g pellet of homogenate)
T1 sequence (P31213 1-254): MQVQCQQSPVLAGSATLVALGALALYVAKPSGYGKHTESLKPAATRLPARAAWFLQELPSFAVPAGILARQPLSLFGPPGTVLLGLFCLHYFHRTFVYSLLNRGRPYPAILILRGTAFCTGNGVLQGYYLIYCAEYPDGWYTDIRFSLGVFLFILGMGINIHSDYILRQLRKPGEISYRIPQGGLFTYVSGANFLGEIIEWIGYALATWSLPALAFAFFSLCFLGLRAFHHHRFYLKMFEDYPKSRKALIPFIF
Briefly: In vitro assay of 5α-reductase inhibition (particulate fraction from hyperplastic human prostates, [14C]testosterone). The format is biochemical. To be noted: human prostate particulate fraction, 1 μM [14C]testosterone, pH 5.5, 37° C., 30 min. The protocol: Inhibition of 5α-reductase was evaluated using the particulate fraction from homogenates of hyperplastic human prostates as the enzyme source. The particulate fraction was prepared centrifuging prostate homogenate at 140,000 x g. The resulting pellet, washed several times, was resuspended in buffer and stored at -80° C. in aliquots containing ≈10 mg protein/ml.
The assay for 5α-reductase was done in a final volume of 0.5 ml, in 40 mM TRIS-HCl buffer pH 5.5, containing I mM dithiothreitol, 5 mM NADPH, 1 μM [^14 C]testosterone, an aliquot of the enzyme preparation and various concentrations of the inhibitors. After 30 min incubation at 37° C. the reaction was terminated by addition of 2 ml cold diethyl ether and the organic phase was separated, evaporated under N2 and resuspended in ethyl acetate. Testosterone metabolites in this extract were separated in TLC on silica gel F 254 plates (Merck), using chloroform, acetone and n-hexane (2:1:2) as developing solvent system. Radioactivity on the plate was scanned and analysed from quantitative plots printed by a TLC-analyzer (Berthold). The fractional 5α-reduction of testosterone was calculated by relating the ^14 C-radioactivity in the 5α-reduced metabolites (5α-dihydrotesterone, […]) regions to the total radioactivity in the testosterone and 5α-reduced metabolites regions.

Test [2] deals with 5α-reductase. Briefly: In vivo inhibition of 5α-reductase (testosterone-induced prostate hypertrophy in castrated rats). The conditions noted are these: castrated testosterone-implanted rats, once daily for 7 days, ventral prostate weight. Also on record: species or system rat. The protocol: The standard test for the antiandrogenic effect in rats was used. Prepuberal 22-day-old male rats were castrated via scrotal incision under light ether anaesthesia. On the seventh day after orchiectomy, androgen replacement was performed via subcutaneous implantation of 1 cm-long Silastic® tube (Dow-Corning, model No. 602-265) filled with a mixture of 25% testosterone and 75% cholesterol. […] Twenty four hours after the last dose the rats were sacrificed and the ventral prostate was removed and weighed. Control animals (testosterone controls) received the vehicle (0.5 ml/kg of 0.5% Methocel/0.4% Tween 80). One group of castrated rats was not implanted with testosterone (castrated controls).
The mean percentage of inhibition of the T-induced hypertrophic response of the prostate was calculated according to the following formula: […]
where WTC, WCC and WI are the mean prostate weight of testosterone control, castrated control and inhibitor treated group, respectively.

What is called IC50 is the concentration needed to halve the response being measured.

Take `CC(NC(=O)[C@H]1CC[C@H]2[C@@H]3CC[C@H]4NC(=O)C=C[C@]4(C)[C@H]3CC[C@]12C)C(=O)C(F)(F)F` (stereo partly drawn) [Compound 5, N-[1,1,1-trifluoro-2-oxobut-3-yl]3-oxo-4-aza-5α-androst-1-ene-17β-carboxamide]: the IC50 at 5α-reductase [1] turned out to be 16 nM. Also, the “% Inhibition of prostate weight at 3 mg/kg/day p.o.” value in the test on 5α-reductase [2] is given as 58%.
On to `CC(C)C(NC(=O)[C@H]1CC[C@H]2[C@@H]3CC[C@H]4NC(=O)C=C[C@]4(C)[C@H]3CC[C@]12C)C(=O)C(F)(F)F` (stereo partly drawn) [Compound 7, N-[1,1,1-trifluoro-4-methyl-2-oxopent-3-yl]3-oxo-4-aza-5α-androst-1-ene-17β-carboxamide], for which, on 5α-reductase [1], the midpoint of inhibition, the IC50, lay at 8 nM. This counts as single-digit nanomolar.
Turning to `CC(C)(NC(=O)[C@H]1CC[C@H]2[C@@H]3CC[C@H]4NC(=O)C=C[C@]4(C)[C@H]3CC[C@]12C)C(=O)C(F)(F)F` [Compound 22, N-[1,1,1-trifluoro-3-methyl-2-oxobut-3-yl]3-oxo-4-aza-5α-androst-1-ene-17β-carboxamide], the IC50 at 5α-reductase [1] was 14 nM. Moreover, the “% Inhibition of prostate weight at 3 mg/kg/day p.o.” value in the test on 5α-reductase [2] is listed as 50%.

Values taken from patent US5418238A, “17β-substituted 4-aza-5α-androstan-3-one derivatives” (Farmitalia Carlo Erba S.R.L., priority 1992, dated 1995).
